Measurements taken from patent publication US20250189527A1, “COMPOSITIONS AND METHODS FOR DETECTING, PREDICTING RISK OF DEVELOPING, AND TREATING LEPTOMENINGEAL DISEASE” (Duke University, priority 2022, published 2025).

B1: Recombinant GDNF: recombinant human/mouse glial cell line-derived neurotrophic factor (PeproTech) (protein, UniProt P39905 78-211, looked up)
Glial cell line-derived …: SPDKQMAVLPRRERNRQAAAANPENSRGKGRRGQRGKNRGCVLTAIHLNVTDLGLGYETKEELIFRYCSGSCDAAETTYDKILKNLSRNRRLVSDKVGQACCRPIAFDDDLSFLDDNLVYHILRKHSAKRCGCI

Tests used:
CSF1R+ cells [1] = test: Depletion of CSF1R+ cells in CSF1R-GFP reporter mice fed PLX5622 chow (whole mount and intravital imaging); type: in vivo, mouse; settings: 1200 mg kg^−1 in AIN-76A rodent chow for three days; brain parenchyma and LM
Experimental: FIG. 16A-E: Meningeal macrophages co-localize with EO-LM2 cells and are depleted with the CSF1R inhibitor, PLX5622. a, Confocal intravital microscopy (IVM) of the brain leptomeninges (LM) showing tdTomato+EO-LM2 cells co-localizing with CSF1R+ myeloid cells in the perivascular space of LM vessels (white). Scale bar=[…]. b, Representative whole mount (brain parenchyma) and IVM (LM) images of CSF1R-GFP reporter mice treated with either control or PLX5622 (1200 mg kg^−1) formulated AIN-76A rodent chow for three days. CSF1R+ cells=green. Vessels=white. c, Quantification of the number of CSF1R+ cells per imaging field of view of mice in (b). Three 10× field of view images acquired per mouse. Unpaired, two-sided Student's t-test. n=3 mice per group. ***P=0.0001. ****P<0.0001. s.e.m. d, Dosing Strategy for experiment in FIG. 11k,l. e, Dosing strategy for experiment in FIG. 11m,n.
PLX5622 (ChemGood) was formulated into AIN-76A rodent chow at 1200 mg kg^−1 by Research Diets Inc. Formulated chow was irradiated prior to administration. CSF1R-GFP (MacGreen) mice were given AIN-76A±PLX5622 for three days prior to engraftment and continued to feed on formulated or control chow for the duration of the study. […]
(§1) Intravital and whole mount images were imported into ImageJ for quantification. […] Tissue bordered were then traced and the mean tdT signal was measured over total tissue area.

EO-LM2 cells [2] = test: Time to LMD progression (HLP score of 0.5) in EO-LM2-engrafted mice, vehicle vs. PLX5622; type: in vivo, mouse; settings: PLX5622 chow 1200 mg kg^−1 from three days prior to engraftment, P=0.0002
From the text: (§2) FIG. 11A-Q: Meningeal macrophages promote BCC survival through GDNF/NCAM signaling. a, Volcano plot of differentially expressed genes in EO-LM2 vs. −P cells. b, Ncam1 mean fluorescence intensity (MFI) by flow cytometry. n=3 biological replicates. Two-sided, unpaired Student's t-test. c, Representative intravital microscopy (IVM) and quantification of EO-LM2 vs. −NCAM1KO cells in the LM of mice on day 3 post-engraftment. n=3 mice. Two-sided, unpaired Student's t-test. d, Hindlimb paralysis (HLP) incidence and representative brain section H&E of paired EO-LM2 vs. −NCAM1KO mice euthanized when either reached a clinical endpoint (EP). n=5 mice. […] Arrows=CSFIR+ cells (green). n=3 mice; n=18-43 cells quantified/mouse. […] Arrowheads=tdT+1833 cells. i, Flow cytometry quantification of GDNF expression in cells isolated from meninges of EO-LM2 mice. n=3 biological replicates. […] Two-sided, unpaired Student's t-test. m, Representative 3D IVM images of EO-LM2 cells (red, arrowheads) co-localizing with CSF1R+ cells (green) surrounding LM vessels (white) in veh. vs. PLX5622-treated mice on day 3 or 10 post-engraftment. n, Quantification of EO-LM2 and CSF1R co-localizing (co-loc.) or non-co-localizing (no-coloc.) cells in the LM of mice in (m). n−3 mice. […]

GDNF = GDNF immunofluorescence on meninges cytospins from EO-LM2-engrafted CSF1R-GFP mice; type: in vivo, mouse; settings: meninges cytospin at endpoint, veh. vs. PLX5622-treated EO-LM2 mice; P=0.0232
From the text: The mouse meninges were isolated as described by Louveau et al (Louveau, A., Filiano, A. J. & Kipnis, J. Meningeal whole mount preparation and characterization of neural cells by flow cytometry. Current protocols in immunology 121, e50-e50 (2018)). Briefly, the skull cap was removed and placed in a cold PBS bath under a dissecting microscope. Using fine forceps, the meninges were carefully peeled off the skull. Any remaining meninges on the brain surface were carefully removed with fine forceps while limiting the removal of residual brain parenchyma. The meninges were digested for 45 min at 37° C. in digest buffer (1×HBSS with calcium and magnesium (Corning), 5% FBS, 10 mM HEPES, DNase (Sigma Aldrich, 20 U mL^−1), Liberase DL (Sigma Aldrich, 10 mg mL^−1), Liberase TL (Sigma Aldrich, 10 mg mL^−1)) and lightly shaken every 10 min. The digested solution was then passed through a 70-μm cell strainer and a rubber syringe pump was used to gently push through any undigested tissue. […]
Glass 96-well plates were coated with 100 μL of poly-D-lysine (Sigma Aldrich, 0.1 mg mL^−1) in water at room temperature for 1 h and then washed three times with sterile PBS and allowed to air dry for 15 min in a tissue culture hood. […] ImageJ was used to quantify raw integrated pixel density per cell.

EO-LM2 cells [3] = test: Intravital microscopy of EO-LM2 cells in the LM of vehicle vs. PLX5622-treated mice; type: in vivo, mouse
Experimental: PLX5622 (ChemGood) was formulated into AIN-76A rodent chow at 1200 mg kg^−1 by Research Diets Inc. Formulated chow was irradiated prior to administration. CSF1R-GFP (MacGreen) mice were given AIN-76A±PLX5622 for three days prior to engraftment and continued to feed on formulated or control chow for the duration of the study.
Mice were anaesthetized using isoflurane and the cortical bone was exposed following a sagittal incision in the scalp. The head of the mouse was secured using a stereotactic apparatus. A micromotor high-speed drill (Stoelting) with a carbide 0.75-mm drill bit (Stoelting) was used to thin the skull immediately to the left of the sagittal suture and centered between the coronal suture and the lambdoid suture. The skull-thinned region was circular and approximately 1 mm in diameter and the thinning continued until the meningeal vessels were visible under a dissecting microscope and the remaining bone was about 50 μm thin. PBS was used to clean the surgical site and dissipate heat every 15 sec. High-resolution images of the leptomeninges were obtained through the skull thinned window using a Leica SP8 confocal and multiphoton microscope with a 25× water immersion lens. […]
as §1

CSF1R+ cells [4] = settings: systemic (non-CNS) populations; cited from earlier work
1833 cells = test: GDNF glucose starvation assay, 1833 cells; type: cell-based, human; settings: glucose free media+1% FBS, GDNF 100 ng mL^−1, 48 h, P=0.0203 vs. vehicle/isotype
Experimental: (§3) 1×10^5 1833 or EO-LM2 cells were seeded in glucose free or complete media+1% FBS in a 12-well plate. The cells were treated with recombinant human/mouse GDNF (PeproTech, 100 ng mL^−1) or vehicle (0.1% BSA in water) and anti-CD49f neutralizing antibody (Invitrogen, 2.5 μg mL^−1) or isotype control. The cells were incubated at 37° C. and 5% CO2 for 24 h (EO-LM2) or 48 h (1833) and then trypsinized and counted with a hemacytometer. The number of live cells in the glucose deprived conditions were then divided by the number of cells in the glucose complete condition to determine the percent of cells alive after glucose deprivation.

EO-LM2 cells [5] = test: GDNF glucose starvation assay, EO-LM2 cells; type: cell-based, mouse; settings: glucose free media+1% FBS, GDNF 100 ng mL^−1, 24 h, P=0.0120 vs. vehicle/isotype
Experimental: as §3

EO-LM2 cells [6] = test: Intracerebroventricular (ICV) GDNF rescue experiment in tumored, CSF1R-depleted mice; type: in vivo, mouse; settings: intraventricular GDNF vs. veh. ICV in PLX5622-treated tumored mice; P=0.0002
From the text: as §2

Row | Molecule | depletion of CSF1R+ cells from the CNS (CSF1R+ cells [1]) | time to LMD progression (time to HLP score of 0.5) (EO-LM2 cells [2]) | LM cells expressing GDNF (GDNF) | initial BCC invasion of the LM (EO-LM2 cells [3]; day 3 post-engraftment, veh. vs. PLX5622) | subsequent BCC expansion within the LM (EO-LM2 cells [3]; day 10 post-engraftment, veh. vs. PLX5622, P<0.0001) | effects on systemic CSF1R+ populations (CSF1R+ cells [4]) | protection from cell death in low glucose conditions (percent live cells after glucose deprivation) (1833 cells) | protection from cell death in low glucose conditions (percent live cells after glucose deprivation) (EO-LM2 cells [5]) | LMD progression (time to HLP score of 0.5) (EO-LM2 cells [6])
1 | COc1ncc(F)cc1CNc1ccc(Cc2c[nH]c3ncc(C)cc23)c(F)n1 [PLX5622] | dramatically depletes | substantially prolonged | dramatic decrease | did not affect | did prevent | modest effects |  |  | 
2 | B1 |  |  |  |  |  |  | marked protection from cell death | marked protection from cell death | accelerated LMD progression
